{
  "source": "paper PMC8993905",
  "about": "“Functional control of a 0.5 MDa TET aminopeptidase by a flexible loop revealed by MAS NMR” (Nature Communications, 2022)",
  "key": {"TET2 [1]": {"biological_target": "T1, TET2 (Pyrococcus horikoshii, UniProt O59196, H123F)", "T1 construct": "gene frvX; full length, 353 residues per subunit, pET41c in E. coli BL21(DE3), no tag mentioned (heat step, Resource Q, Superdex 200), 39 kDa subunit, 468 kDa homododecamer, two Zn per active site", "T1 sequence (O59196 whole entry H123F)": "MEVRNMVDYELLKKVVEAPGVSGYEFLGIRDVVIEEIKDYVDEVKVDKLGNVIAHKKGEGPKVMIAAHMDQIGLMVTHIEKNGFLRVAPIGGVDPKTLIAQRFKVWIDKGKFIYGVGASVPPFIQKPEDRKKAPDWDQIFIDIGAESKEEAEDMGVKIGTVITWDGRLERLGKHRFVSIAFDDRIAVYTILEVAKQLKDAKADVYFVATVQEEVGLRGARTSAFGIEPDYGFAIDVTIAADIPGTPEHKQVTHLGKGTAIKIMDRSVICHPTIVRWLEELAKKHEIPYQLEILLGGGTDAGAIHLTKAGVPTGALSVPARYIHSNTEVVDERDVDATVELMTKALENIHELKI", "assay": "MAS NMR 1H-15N chemical-shift perturbation", "assay_type": "binding", "conditions": "active site, non-covalent; isotope-labelled protein, ca. 28 °C"}, "TET2 [2]": {"biological_target": "T2, TET2 (Pyrococcus horikoshii, UniProt O59196)", "T2 construct": "gene frvX; full length, 353 residues per subunit, pET41c in E. coli BL21(DE3), no tag mentioned (heat step, Resource Q, Superdex 200), 39 kDa subunit, 468 kDa homododecamer, two Zn per active site", "assay": "MAS NMR chemical-shift perturbation", "assay_type": "binding", "conditions": "active site, non-covalent; isotope-labelled protein, ca. 28 °C"}, "TET2 [3]": {"biological_target": "T3, TET2 (Pyrococcus horikoshii, UniProt O59196, H123Y)", "T3 construct": "gene frvX; full length, 353 residues per subunit, pET41c in E. coli BL21(DE3), no tag mentioned (heat step, Resource Q, Superdex 200), 39 kDa subunit, 468 kDa homododecamer, two Zn per active site", "T3 sequence (O59196 whole entry H123Y)": "as the sequence (O59196 whole entry H123F) above, with F123Y counted along it", "assay": "H-Leu-pNA hydrolysis, absorbance at […] nm", "assay_type": "biochemical", "conditions": "6.4 mM H-Leu-pNA, 1, 5 or 20 mM histidine, pH 7.5, 50 °C"}, "TET2 [4]": {"biological_target": "T2, TET2", "assay": "H-Leu-pNA hydrolysis, absorbance at […] nm", "assay_type": "biochemical", "conditions": "6.4 mM H-Leu-pNA, 1, 5 or 20 mM histidine, pH 7.5, 50 °C"}, "TET2 [5]": {"biological_target": "T2, TET2", "assay": "MAS NMR 1H-15N peak doubling (G92, D94, H323)", "assay_type": "binding", "conditions": "active site; 50% (vol/vol) MPD, pH 7.6, ca. 28 °C; slow exchange"}},
  "data": [
    {"smiles": "CC(C)C[C@@H](N)[C@H](O)C(=O)N[C@H](C(=O)N[C@H](C(=O)N[C@@H](CC(=O)O)C(=O)O)C(C)C)C(C)C", "note": "[amastatin]", "values": [
      {"measurement": "MAS NMR 1H-15N chemical-shift perturbation", "setting": "TET2 [1]", "result": "We ensured that amastatin tightly binds to the H123F mutant"},
      {"measurement": "MAS NMR chemical-shift perturbation", "setting": "TET2 [2]", "result": "MAS NMR experiments reveal the chemical-shift perturbations induced by this tightly bound inhibitor"}
    ]},
    {"smiles": "N[C@@H](Cc1c[nH]cn1)C(=O)O", "note": "[histidine]", "values": [
      {"measurement": "activity with added free histidine", "setting": "TET2 [3]", "result": "addition of free His not only does not increase the activity, but abolishes the function"},
      {"measurement": "activity with added free histidine", "setting": "TET2 [4]", "result": "abolishes the function of WT and mutant TET2"}
    ]},
    {"smiles": "CC(O)CC(C)(C)O", "note": "(centres unmarked) [2-methyl-2,4-pentanediol]", "values": [
      {"measurement": "MAS NMR 1H-15N peak doubling (G92, D94, H323)", "setting": "TET2 [5]", "result": "2-methyl-2,4-pentanediol (MPD), a common crystallization agent used also to obtain solid-state NMR samples, interacts"}
    ]}
  ]
}
